In assay [1] the target is T1, Patatin-like phospholipase domain-containing protein 2 (Mus musculus, UniProt Q8BJ56).
T1 sequence (Q8BJ56 whole entry): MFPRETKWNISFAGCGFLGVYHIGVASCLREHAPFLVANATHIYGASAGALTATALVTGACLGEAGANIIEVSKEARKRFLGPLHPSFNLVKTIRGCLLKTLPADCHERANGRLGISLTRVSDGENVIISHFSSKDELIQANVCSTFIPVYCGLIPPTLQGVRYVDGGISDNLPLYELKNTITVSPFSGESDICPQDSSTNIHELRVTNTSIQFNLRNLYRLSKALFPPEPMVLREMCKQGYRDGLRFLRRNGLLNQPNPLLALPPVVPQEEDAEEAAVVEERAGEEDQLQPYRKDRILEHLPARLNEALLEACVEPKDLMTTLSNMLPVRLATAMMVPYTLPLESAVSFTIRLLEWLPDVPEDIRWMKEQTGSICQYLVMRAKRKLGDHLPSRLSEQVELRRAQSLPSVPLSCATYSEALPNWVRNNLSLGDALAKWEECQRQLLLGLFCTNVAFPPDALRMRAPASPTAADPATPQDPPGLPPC
The assay can be described thus: Inhibition of murine ATGL expressed in COS-7 cells. It is filed as cell-based.

For assay [2], the target named is T2, Patatin-like phospholipase domain-containing protein 2 (Mus musculus) (UniProt Q8BJ56).
T2 sequence (whole entry): T1 sequence (Q8BJ56 whole entry)
Description: Inhibition of murine ATGL expressed in COS-7 cells at 200 uM relative to control. It is filed as cell-based.

Assay [3] is described as follows: In vivo inhibition of ATGL in mouse assessed as decrease in plasma fatty acid release at 200 uM, ip measured up to 8 hrs. It is filed as functional. As to conditions: time hrs <=8.
Assay [4] is described as follows: Inhibition of isoproterenol-stimulated lipolysis in ATGL-ko mouse at 200 uM, ip after 2 hrs. It is filed as functional.
In assay [5] the target is T1, Patatin-like phospholipase domain-containing protein 2. Description: Inhibition of murine ATGL.
Assay [6] deals with T2, Patatin-like phospholipase domain-containing protein 2 (Mus musculus). Description: Inhibition of murine ATGL at 200 uM relative to control.
For assay [7] the target is unchanged. Description: Inhibition of recombinant murine ATGL expressed in Escherichia coli XL-1 lysates at 200 uM relative to control. It is filed as subcellular.
The nature of assay [8]: In vivo inhibition of ATGL in ad libitum fed mouse assessed as reduction in circulating fatty acid level at 200 uM administered via oral gavage measured after 8 hrs. It is filed as functional.
The nature of assay [9]: In vivo inhibition of ATGL in ad libitum fed mouse assessed as reduction in circulating glycerol level at 200 uM administered via oral gavage measured after 8 hrs. It is filed as functional.
Assay [10] can be described thus: In vivo inhibition of ATGL in 12 hrs fasted mouse assessed as reduction in circulating fatty acid level at 200 uM administered via oral gavage measured after 8 hrs. It is filed as functional.
Assay [11] in a line: In vivo inhibition of ATGL in 12 hrs fasted mouse assessed as reduction in circulating glycerol level at 200 uM administered via oral gavage measured after 8 hrs. It is filed as functional.
The nature of assay [12]: In vivo inhibition of ATGL in 12 hrs fasted mouse assessed as reduction in circulating triacylglycerol level at 200 uM administered via oral gavage measured after 8 hrs. It is filed as functional.
The test system of another assay is Mus musculus. The assay can be described thus: In vivo inhibition of ATGL in 12 hrs fasted mouse assessed as reduction in circulating TG level at 200 uM administered via oral gavage in presence of poloxamer measured after 8 hrs. It is filed as functional, organism-based.
For assay [13], the target named is T1, Patatin-like phospholipase domain-containing protein 2. The assay can be described thus: Inhibition of recombinant murine ATGL expressed in Escherichia coli XL-1 lysates. It is filed as subcellular.

SMILES strings stand for the structures. The source made the active and inactive calls. The calls are words filed in the database; no cut-off is given here. Some results are limits rather than exact numbers.

What is called IC50 is the concentration at which inhibition is half-maximal. As a reminder, the inhibition is the relative decrease from the control value, in per cent. For orientation: inhibition in vivo means the relative decrease from the control value, in per cent. The molecule `CCOC(=O)c1cccc(-c2ccc(N(C)C)cc2)c1` came in with an IC50 in assay [1] of 40 µM. This molecule gave an inhibition in [2] of 87%. Besides, the inhibition in vivo at 200 µM in [3] stood at 40%; in [4], 60%.
For `CCOc1ccc(-n2cc(O)c(C(=O)OC)n2)cc1`, the IC50 in assay [5] was 130 µM. The molecule further displayed an inhibition in [6] of 64%.
For `CCOC(=O)c1nn(-c2ccc(OCC)cc2)cc1O` the same measures were 120 µM and 67%.
On the same counts, the results for `CCOc1ccc(-n2cc(O)c(C(=O)O)n2)cc1` are more than 200 µM and 15%.
Molecule `CCOC(=O)c1ccn(-c2ccc(OCC)cc2)n1` yielded an inhibition in assay [6] of 89%.
In assay [1], `CN(C)C(=O)Nc1cccc(-c2ccc(N(C)C)cc2)c1` displayed an IC50 of less than 5 µM. Further, the figures for the inhibition in [2] and in assay [7] were 98% and 99%, respectively. Besides, the inhibition in vivo at 200 µM in [8] was 27%; in [9], 23%; in [10], 27%; in assay [11], 26%; in [12] it was 37%. In the assay on Mus musculus, the inhibition result was “Active”.
Consider `CCOC(=O)c1nn(-c2ccc(OCC)cc2)cc1OC`, for which 90 µM corresponded to half-maximal inhibition in assay [5] (IC50). For the same molecule, the inhibition in assay [6] stood at 63%.
On to `CCOc1ccc(-c2cccc(NC(=O)N(C)C)c2)cc1`, for which the values for the IC50 in assay [1] and in assay [13] were 70 µM and 9 µM, respectively. The inhibition was 68% in assay [2] and 83% in [7].
In the case of `CCCCOC(=O)c1nn(-c2ccc(OCC)cc2)cc1O`, in assay [5], the IC50 came to 100 µM. This molecule also registered an inhibition in [6] of 74%.

Source of the values: ChEMBL document CHEMBL4725289, “Structure-activity relationship studies for the development of inhibitors of murine adipose triglyceride lipase (ATGL)” (Bioorg Med Chem, 2020).
